Read-outs that look alike come from different tables or passages of the source.
Key:
HIV-1 lai = assay: Intracellular P24 capsid protein staining by flow cytometry in HIV-1 infected CD4 T lymphocytes; type: cell-based; settings: 20 µM added every two days, staining day 4, 5, 6 post-infection
[1] = system: CD4 T lymphocytes infected with HIV-1 lai; assay: Annexin V staining (cell mortality/apoptosis) of HIV-1 infected CD4 T lymphocytes; type: cell-based; settings: 20 µM every two days; day 5 post-infection
SARS-CoV-2 [2] = assay: microbe, parasite or virus in culture; type: cell-based
SARS-CoV-2 [3] = type: cell-based
SARS-CoV-2 [4] = type: cell-based; remark: listed apart in the source
caspases = settings: cited from earlier work
HIV = settings: WO2009/092897; cited from earlier work
SIV = settings: cited from earlier work

Q: What does the source list for `CC(C)[C@H](NC(=O)c1ccc2ccccc2n1)C(=O)N[C@@H](CC(=O)O)C(=O)COc1c(F)cccc1F` [QVD-Unmethylated]?
A: antiviral effect on HIV-1 replication (intracellular P24 capsid protein) (HIV-1 lai): same antiviral effect; cell mortality (Annexin V surface staining) [1]: The results were the same

Q: For `CCO[C@@H]1OC(=O)C[C@@H]1NC(=O)[C@@H]1CCCN1C(=O)[C@@H](NC(=O)c1ccc(N)c(Cl)c1)C(C)(C)C` [VX-765], which “antiviral effect on HIV-1 replication (intracellular P24 capsid protein)” value (“antiviral effect on HIV-1 replication” for short) (HIV-1 lai) is on record?
A: no effect on the viral replication

Q: Which “antiviral effect on HIV-1 replication” value (HIV-1 lai) does the source give for `COC(=O)C[C@H](NC(=O)[C@@H](NC(=O)c1ccc2ccccc2n1)C(C)C)C(=O)COc1c(F)cccc1F` [QVD-methylated] here?
A: same antiviral effect

Q: And the “cell mortality (Annexin V surface staining)” value [1]?
A: contrary

Q: With `CC(C)C(NC(=O)c1ccc2ccccc2n1)C(=O)NC(CCC(=O)O)C(=O)COc1c(F)cccc1F` (stereo not shown) [Q-VE-OPh] as the molecule, how does the “antiviral effect on HIV-1 replication” value (HIV-1 lai) read?
A: same antiviral effect as the comparative Q-VD-OPh molecule

Q: And the “cell mortality (Annexin V surface staining)” value [1]?
A: much less mortality than the infected cells

Q: And the “effect on the entry of the virus into the cell” value (SARS-CoV-2 [2])?
A: no significant effect

Q: And the inhibition at 50 µM (SARS-CoV-2 [2]; Severe acute respiratory syndrome coronavirus 2, Vero C1008, 72 h, read-out: inhibition of SARS-CoV-2 viral replication)?
A: ~99%

Q: What about the inhibition at 25 µM (SARS-CoV-2 [2]; Severe acute respiratory syndrome coronavirus 2, Vero C1008, 72 h, 25 µM, read-out: inhibition of SARS-CoV-2 viral replication) of the same molecule?
A: ~70%

Q: And the “expression of the viral Spike and Nucleocapsid proteins within infected cells” value (SARS-CoV-2 [3])?
A: reduce significantly

Q: What about the “relative expression of the Nucleocapsid (N) and NSP6 genes in supernatants of infected cells” value (SARS-CoV-2 [4]) of the same molecule?
A: reduce significantly

Q: And the “toxicity on Vero E6 cells” value (Vero E6 cells; 100 µM added for three days)?
A: without any toxicity

Q: And the “toxicity on Vero E6 cells” value (Vero E6 cells; 25, 50, 100 µM, infected (MOI 0.05) or not, 72 h post-infection)?
A: no toxicity effect

Q: What about the caspase inhibitory activity (caspases) of the same molecule?
A: does not show any caspase inhibitory activity

Q: With `CC(C)C(NC(=O)c1ccc2ccccc2n1)C(=O)NC(CC(=O)O)C(=O)COc1c(F)cccc1F` (stereo not shown) [Q-VD-OPh] as the molecule, how does the caspase inhibitory activity (caspases) read?
A: broad caspase inhibitor

Q: What about the “inhibition of viral replication in HIV-infected cells” value (HIV) of the same molecule?
A: inhibition of viral replication

Q: And the “AIDS disease progression and control of viral replication” value (SIV; SIV-infected rhesus macaques, five injections during primary infection)?
A: prevents AIDS disease progression

Q: What about the “cancer development after treatment” value (SIV; six monkeys, four or five years after treatment) of the same molecule?
A: none of the animals have developed a cancer
